Source: patent US5925369A, “Bis alkanoyl esters of carnitine having bactericidal, fungicidal and antiprotozoal activity” (priority 1996, dated 1999)

Assays:
B. pumilus = test: MIC on Gram positive bacteria; assay type: cell-based; conditions: Bacillus pumilus; B. pumilus CN 607, lab collection; read-out: Minimal Inhibitory Concentration
Protocol: (§1) Bacterial suspensions are prepared from an overnight culture in Mueller-Hinton broth and are adjusted, in the same medium, to a final concentration of 5.0×10^4 cells/ml in each well of a 96-well microtiter plate. Substance dilutions (0.3 log) in Mueller-Hinton broth are added to the suspensions in order to have a range of final concentrations from 0.19 to 100 mcg/ml.
(§2) Microtiters are then incubated at 37° C. for 18 hours. (See L. D. THRUPP, Susceptibility testing of antibiotics in liquid media, in: Antibiotics in laboratory medicine. V. LORIAN Ed., II edition, 4, 93-150, Williams & Wilkins, Baltimora, Md. 21202 U.S.A.).

Micrococcus sp. = test: MIC on Gram positive bacteria; assay type: cell-based; conditions: Micrococcus sp. IDI 3502, clinical isolate (pustule, scalp); read-out: Minimal Inhibitory Concentration
Protocol: as §1, §2

Staph. capitis = test: MIC on Gram positive bacteria; assay type: cell-based; conditions: Staphylococcus capitis; Staph. capitis IDI 3502, clinical isolate (pustule, scalp); read-out: Minimal Inhibitory Concentration
Protocol: as §1, §2

Staph. epider. = test: MIC on Gram positive bacteria; assay type: cell-based; conditions: Staph. epider. IDI 3482, clinical isolate (suppurative wound); read-out: Minimal Inhibitory Concentration
Protocol: as §1, §2

Staph. warneri = test: MIC on Gram positive bacteria; assay type: cell-based; conditions: Staphylococcus warneri; Staph. warneri IDI 3482, clinical isolate (suppurative wound); read-out: Minimal Inhibitory Concentration
Protocol: as §1, §2

Strept. sp. = test: MIC on Gram positive bacteria; assay type: cell-based; conditions: Strept. sp. SG 7 II, clinical isolate; read-out: Minimal Inhibitory Concentration
Protocol: as §1, §2

Gram positive bacteria = test: MIC on Gram positive bacteria (all strains); assay type: cell-based
Protocol: as §1, §2

bacteria and fungi = conditions: bactericidal (EP-A-0 552 137) and fungicidal (EP-A-0 552 138); cited from earlier work
[1] = test system: T. mentagrophytes IDI D1049; test: Antifungal activity in experimental Tinea pedis in the guinea-pig paw; assay type: in vivo, Hartley guinea-pig; conditions: for A (clinical sign score) / D (clinical sign score) / E (clinical sign score): scale 0-3; for sterile samples (%) / sterile samples (n = 30), number over total: 20 days once a day, day +31
From the text: Twelve male Hartley guinea-pig (C. RIVER), weighing 350-400 gr, have been utilized (3 animals per experimental group).
One clinical isolate (Tricophyton mentagrophytes IDI D 1049, from Immacolata Dermatological Institute of Rome) was utilized.
Microaleuriospores were first harvested by scraping from a 7-day fungal culture grown in Potato dextrose agar, and then resuspended in Sabouraud broth with 0.5% Tween 80.
After washing, the spores were standardized in sterile saline to yield a final concentration of 1.0×10^8 spores/ml.
Each group included 3 animals, and only the left hind paw was inoculated. For the 2 control groups, 3 animals in total were used, as both hind paws of each animal were inoculated.
Filter paper discs (12-mm diameter and 0.3-mm thickness) were covered with aluminum foil in the lower part to prevent the inoculum spreading. This filter was then sticked to a 1×3-cm piece of biadesive plaster, which adhered to a gauze wrapped around the paw.
The filter paper disc was then wetted with 100 μl of the infective suspension, and subsequently fixed to the guinea-pig paw.
The animal paw was tied up with bandage and plaster, and then left in these conditions for 7 days.
Seven days after infection, the infected areas were uncovered and the type of lesion was graded according to an arbitrary scale, as follows:
These "clinical" signs were examined again on days +14, +21, and +31 (day of sacrifice of animals). Three days following the first observation of the type of lesion (day +10), treatments with the differrent formulations were started, and they went on for 20 days (once a day). Two days following the last treatment (day +31), animals were sacrificed and plantar areas of the paws were dissected into 10 parts for each paw.
These sections were plated onto Mycobiotic agar supplemented with Penicillin G and Streptomicin (100 mcg/ml). Volumes of 50 μl of both antibiotics were then added to the plantar sections to prevent any bacterial growth that might interfere with the growth of T. mentagrophytes in the samples under examination.
The data obtained were expressed as the number of microbiologically sterile cutaneous sections over the total examined sections.

Which results are given for `CCCCCCCCCCCOC(=O)C[C@H](C[N+](C)(C)C)OC(=O)CC(C)C` [ST 1103, isovaleryl L-carnitine undecyl ester methanesulfonate, reference compound]?
MIC (B. pumilus): 3.12 µg/mL; MIC (Micrococcus sp.): 3.12 µg/mL; MIC (Staph. capitis): 3.12 µg/mL; MIC (Staph. epider.): 1.56 µg/mL; MIC (Staph. warneri): 6.25 µg/mL; MIC (Strept. sp.): 3.12 µg/mL; MIC (Gram positive bacteria; clinical isolates, 10 strains): 3.9 µg/mL; MIC (Gram positive bacteria; lab collection, 5 strains): 4.06 µg/mL; activity among the known compounds (bacteria and fungi): most active both as bactericidal and fungicidal agent

Which MIC (B. pumilus) does the source give for `CCCCCCCCCCC(=O)O[C@H](CC(=O)OCc1ccc(COC(=O)C[C@H](C[N+](C)(C)C)OC(=O)CCCCCCCCCC)cc1)C[N+](C)(C)C` [ST 1226, bis(undecanoyl L-carnitine chloride)p-xylilene diester] here?
Its MIC is 1.56 µg/mL.

What about the MIC (Micrococcus sp.) of the same compound?
The MIC was 1.56 µg/mL.

And the MIC (Staph. capitis)?
The MIC was 1.56 µg/mL.

What about the MIC (Staph. epider.) of the same compound?
The MIC was 3.12 µg/mL.

What about the MIC (Staph. warneri) of the same compound?
The MIC was 3.12 µg/mL.

And the MIC (Strept. sp.)?
The MIC was 3.12 µg/mL.

What about the microbiological recovery ([1]; 1% ST 1226) of the same compound?
Its microbiological recovery is 80%.

And the “A (clinical sign score)” value ([1]; 1%, 7th day)?
Its value is 0.

And the “D (clinical sign score)” value ([1]; 1%, 7th day)?
Its value is 0.

And the “E (clinical sign score)” value ([1]; 1%, 7th day)?
Its value is 0.

And the “A (clinical sign score)” value ([1]; 1%, 14th day)?
The value was 0.

And the “D (clinical sign score)” value ([1]; 1%, 14th day)?
Its value is 0.

What about the “E (clinical sign score)” value ([1]; 1%, 14th day) of the same compound?
The value was 0.

What about the “A (clinical sign score)” value ([1]; 1%, 21st day) of the same compound?
The value was 0.

What about the “D (clinical sign score)” value ([1]; 1%, 21st day) of the same compound?
Its value is 0.

What about the “E (clinical sign score)” value ([1]; 1%, 21st day) of the same compound?
The value was 0.

What about the “A (clinical sign score)” value ([1]; 1%, 31st day) of the same compound?
The value was 0.

What about the “D (clinical sign score)” value ([1]; 1%, 31st day) of the same compound?
Its value is 0.

And the “E (clinical sign score)” value ([1]; 1%, 31st day)?
The value was 0.

What about the “sterile samples (%)” value ([1]; 1%) of the same compound?
The value was 80%.

What about the “sterile samples (n = 30), number over total” value ([1]; 1%) of the same compound?
The value was 24/30.

And the microbiological recovery ([1]; 1.5% ST 1226)?
The microbiological recovery was 100%.

What about the “A (clinical sign score)” value ([1]; 1.5%, 7th day) of the same compound?
Its value is 0.

And the “D (clinical sign score)” value ([1]; 1.5%, 7th day)?
Its value is 0.

What about the “E (clinical sign score)” value ([1]; 1.5%, 7th day) of the same compound?
The value was 0.

What about the “A (clinical sign score)” value ([1]; 1.5%, 14th day) of the same compound?
The value was 0.

And the “D (clinical sign score)” value ([1]; 1.5%, 14th day)?
The value was 0.

And the “E (clinical sign score)” value ([1]; 1.5%, 14th day)?
The value was 0.

And the “A (clinical sign score)” value ([1]; 1.5%, 21st day)?
Its value is 0.

What about the “D (clinical sign score)” value ([1]; 1.5%, 21st day) of the same compound?
Its value is 0.

And the “E (clinical sign score)” value ([1]; 1.5%, 21st day)?
The value was 0.

And the “A (clinical sign score)” value ([1]; 1.5%, 31st day)?
Its value is 0.

What about the “D (clinical sign score)” value ([1]; 1.5%, 31st day) of the same compound?
The value was 0.

What about the “E (clinical sign score)” value ([1]; 1.5%, 31st day) of the same compound?
Its value is 0.

And the “sterile samples (%)” value ([1]; 1.5%)?
Its value is 100%.

And the “sterile samples (n = 30), number over total” value ([1]; 1.5%)?
Its value is 20/20.
